pIC50: −log10 of the molar value.
Experiments:
[1] = target: T1, HCV polymerase (NS5B) type 1b (Hepatitis C virus genotype 1b, UniProt P26663); assay: Assay of enzyme (HCV polymerase) inhibitory activity, type 1b enzyme; assay type: biochemical, HCV BK strain (type 1b); details: HCV polymerase inhibitory activity (IC50), 1b, type 1b enzyme 0.5 μg/ml, 25° C., 60 min
T1 construct: a region encoding NS5B (J Virol 1991 March, 65(3), 1105-13, 544 amino acids after deletion of 47 amino acids on the C-terminal); 6xHis (C); made in house; host or cells: Escherichia coli
Text: (§1) The evaluation of the HCV polymerase inhibitory activity of the compound of the present invention is explained in the following. This polymerase is an enzyme coded for by the non-structural protein region called NS5B on the genome RNA of HCV.
(§2) i) Preparation of Enzyme (HCV Polymerase)
(§3) Using, as a template, a cDNA clone corresponding to the full length genome RNA of HCV BK strain (type 1b) obtained from the blood of a patient with hepatitis C, a region encoding NS5B (J Virol 1991 March, 65(3), 1105-13, 544 amino acids after deletion of 47 amino acids on the C-terminal) was amplified by PCR. The objective gene was prepared by adding a 6 His tag {base pair encoding 6 continuous histidine (His)} to the 3′ end thereof and transformed to Escherichia coli. The Escherichia coli capable of producing the objective protein was cultured. The obtained cells were suspended in a buffer solution and crushed in a microfluidizer. The supernatant was obtained by centrifugation and applied to various column chromatographys {mono-S, Sephacryl S-200 (Pharmacia)}, inclusive of metal chelate chromatography, to give a standard enzyme product.
(§4) ii) Synthesis of Substrate RNA
(§5) Using a synthetic primer designed based on the sequence of HCV genomic 3′ untranslated region, a DNA fragment (148 bp) containing polyU and 3′X sequence was entirely synthesized and cloned into plasmid pBluescript SK II(+) (Stratagene). The cDNA encoding full length NS5B, which was prepared in i) above, was digested with restriction enzyme KpnI to give a cDNA fragment containing the nucleotide sequence of from the restriction enzyme cleavage site to the termination codon. This cDNA fragment was inserted into the upstream of 3′ untranslated region of the DNA in pBluescript SK II(+) and ligated. The about 450 bp inserted DNA sequence was used as a template in the preparation of substrate RNA. This plasmid was cleaved immediately after the 3′X sequence, linearized and purified by phenol-chloroform treatment and ethanol precipitation to give DNA.
(§6) RNA was synthesized (37° C., 4 hr) by run-off method using this purified DNA as a template, a promoter of pBluescript SK II(+), MEGAscript RNA synthesis kit (Ambion) and T7 RNA polymerase. DNase I was added and the mixture was incubated for 1 hr. The template DNA was removed by decomposition to give a crude RNA product. This crude product was treated with phenol-chloroform and purified by ethanol precipitation to give the objective substrate RNA.
(§7) This RNA was applied to urea denaturation polyacrylamide gel electrophoresis to confirm the quality thereof and preserved at −80° C.
(§8) iii) Assay of Enzyme (HCV Polymerase) inhibitory activity
(§9) A test substance (compound of the present invention) and a reaction mixture (30 μl) having the following composition were reacted at 25° C. for 60 min.
(§10) 10% Trichloroacetic acid and 1% sodium pyrophosphate solution (150 μl) at 4° C. was added to this reaction mixture to stop the reaction. The reaction mixture was left standing at 4° C. for 15 min to insolubilize RNA. This RNA was trapped on a glass filter (PerkinElmer, GF/B) upon filtration by suction. This filter was washed with a solution containing 1% trichloroacetic acid and 0.1% sodium pyrophosphate, washed with 90% ethanol and dried. A liquid scintillation cocktail (PerkinElmer) was added and the radioactivity of RNA synthesized by the enzyme reaction was measured on a liquid scintillation counter.
The HCV polymerase inhibitory activity (IC50) of the compound of the present invention was calculated from the values of radioactivity of the enzyme reaction with and without the test substance.
Reaction mixture: HCV polymerase (type 1b 0.5 μg/ml or type 1a 1.5 μg/m) obtained in i), substrate RNA (5 μg/ml) obtained in ii), ATP (50 μM), GTP (50 μM), CTP (50 μM), UTP (2 μM), [5,6-^3H]UTP (30-60 Ci/mmol (Amersham Biosciences), 1 μCi) 20 mM Tris-HCl (pH 7.5), EDTA (1 mM), MgCl2 (5 mM), NaCl (50 mM), DTT (1 mM), BSA (0.01%)

[2] = target: T2, HCV polymerase (NS5B) type 1a (Hepatitis C virus genotype 1a, UniProt P26664); assay: Assay of enzyme (HCV polymerase) inhibitory activity, type 1a enzyme; assay type: biochemical, HCV type 1a (cloned from the blood of patients); details: HCV polymerase inhibitory activity (IC50), 1a, type 1a enzyme 1.5 μg/ml, 25° C., 60 min
T2 construct: made in house; host or cells: Escherichia coli (by the 'similar method' of the 1b enzyme)
Text: as §1, §2, §3
Standard enzyme products for type 1a (cloned from the blood of patients) were also obtained by a similar method.
as §4, §5, §6, §7, §8, §9, §10
The HCV polymerase inhibitory activity (IC50) of the compound of the present invention was calculated from the values of radioactivity of the enzyme reaction with and without the test substance. […]

Structure (SMILES) | pIC50 [1] | pIC50 [2]
COC(=O)N1CCN(S(=O)(=O)c2ccc(C(C)C)cc2)C(C(=O)NCc2ccc(C(F)(F)F)cc2)C1 (stereo not drawn) [Example 32, 4-(4-isopropyl-benzenesulfonyl)-3-(4-trifluoromethyl-benzylcarbamoyl)-piperazine-1-carboxylic acid methyl ester] | < 6.00 | < 6.00
CC(=O)N1CCN(S(=O)(=O)c2ccc(C(C)C)cc2)C(C(=O)NCc2cccc(Cl)c2)C1 (stereo not drawn) [Example 33, 4-acetyl-1-(4-isopropyl-benzenesulfonyl)-piperazine-2-carboxylic acid 3-chloro-benzylamide] | < 6.00 | < 6.00
CC(=O)N1CCN(S(=O)(=O)c2ccc(C(C)C)cc2)C(C(=O)NCc2ccccc2Cl)C1 (stereo not drawn) [Example 34, 4-acetyl-1-(4-isopropyl-benzenesulfonyl)-piperazine-2-carboxylic acid 2-chloro-benzylamide] | < 6.00 | < 6.00
CC(=O)N1CCN(S(=O)(=O)c2ccc(C(C)C)cc2)C(C(=O)NCc2ccc(Cl)cc2)C1 (stereo not drawn) [Example 35, 4-acetyl-1-(4-isopropyl-benzenesulfonyl)-piperazine-2-carboxylic acid 4-chloro-benzylamide] | < 6.00 | < 6.00
CC(=O)N1CCN(S(=O)(=O)c2ccc(C(C)C)cc2)C(C(=O)NCc2ccc(-c3ccccc3)cc2)C1 (stereo not drawn) [Example 36, 4-acetyl-1-(4-isopropyl-benzenesulfonyl)-piperazine-2-carboxylic acid (biphenyl-4-ylmethyl)-amide] | < 6.00 | 6.00 to 7.00
CC(=O)N1CCN(S(=O)(=O)c2ccc(C(C)C)cc2)C(C(=O)NCc2ccc(N(C)C)cc2)C1 (stereo not drawn) [Example 37, 4-acetyl-1-(4-isopropyl-benzenesulfonyl)-piperazine-2-carboxylic acid 4-dimethylamino-benzylamide] | 6.00 to 7.00 | 6.00 to 7.00
CC(=O)N1CCN(S(=O)(=O)c2ccc(C(C)C)cc2)C(C(=O)NCc2ccc(S(N)(=O)=O)cc2)C1 (stereo not drawn) [Example 38, 4-acetyl-1-(4-isopropyl-benzenesulfonyl)-piperazine-2-carboxylic acid 4-sulfamoyl-benzylamide] | < 6.00 | < 6.00
CC(=O)Nc1ccc(S(=O)(=O)N2CCN(C(C)=O)CC2C(=O)NCc2ccc(C(F)(F)F)cc2)cc1 (stereo not drawn) [Example 39, 4-acetyl-1-(4-acetylamino-benzenesulfonyl)-piperazine-2-carboxylic acid 4-trifluoromethyl-benzylamide] | < 6.00 | < 6.00
CC(=O)N1CCN(S(=O)(=O)c2ccc([N+](=O)[O-])cc2)C(C(=O)NCc2ccc(C(F)(F)F)cc2)C1 (stereo not drawn) [Example 40, 4-acetyl-1-(4-nitro-benzenesulfonyl)-piperazine-2-carboxylic acid 4-trifluoromethyl-benzylamide] | < 6.00 | < 6.00
CC(=O)N1CCN(S(=O)(=O)c2ccc(Cl)c(Cl)c2)C(C(=O)NCc2ccc(C(F)(F)F)cc2)C1 (stereo not drawn) [Example 41, 4-acetyl-1-(3,4-dichloro-benzenesulfonyl)-piperazine-2-carboxylic acid 4-trifluoromethyl-benzylamide] | < 6.00 | < 6.00
CC(=O)N1CCN(S(=O)(=O)c2cccc(-c3ccccc3)c2)C(C(=O)NCc2ccc(C(F)(F)F)cc2)C1 (stereo not drawn) [Example 42, 4-acetyl-1-(biphenyl-3-sulfonyl)-piperazine-2-carboxylic acid 4-trifluoromethyl-benzylamide] | < 6.00 | < 6.00
CC(=O)N1CCN(S(=O)(=O)c2ccc(-c3cc(C(F)(F)F)on3)s2)C(C(=O)NCc2ccc(C(F)(F)F)cc2)C1 (stereo not drawn) [Example 43, 4-acetyl-1-[5-(5-trifluoromethyl-isoxazol-3-yl)-thiophene-2-sulfonyl]-piperazine-2-carboxylic acid 4-trifluoromethyl-benzylamide] | < 6.00 | < 6.00
COc1ccc(S(=O)(=O)N2CCN(C(C)=O)CC2C(=O)NCc2ccc(C(F)(F)F)cc2)cc1 (stereo not drawn) [Example 44, 4-acetyl-1-(4-methoxy-benzenesulfonyl)-piperazine-2-carboxylic acid 4-trifluoromethyl-benzylamide] | < 6.00 | < 6.00
CC(=O)N1CCN(S(=O)(=O)c2ccc(C(F)(F)F)cc2)C(C(=O)NCc2ccc(C(F)(F)F)cc2)C1 (stereo not drawn) [Example 45, 4-acetyl-1-(4-trifluoromethyl-benzenesulfonyl)-piperazine-2-carboxylic acid 4-trifluoromethyl-benzylamide] | < 6.00 | < 6.00
CC(=O)N1CCN(S(=O)(=O)c2ccc(C#N)cc2)C(C(=O)NCc2ccc(C(F)(F)F)cc2)C1 (stereo not drawn) [Example 46, 4-acetyl-1-(4-cyano-benzenesulfonyl)-piperazine-2-carboxylic acid 4-trifluoromethyl-benzylamide] | < 6.00 | < 6.00
CC(=O)N1CCN(S(=O)(=O)c2ccc(S(=O)(=O)c3ccccc3)s2)C(C(=O)NCc2ccc(C(F)(F)F)cc2)C1 (stereo not drawn) [Example 47, 4-acetyl-1-(5-benzenesulfonyl-thiophene-2-sulfonyl)-piperazine-2-carboxylic acid 4-trifluoromethyl-benzylamide] | < 6.00 | < 6.00
CC(=O)N1CCN(S(=O)(=O)c2ccc3c(c2)CCO3)C(C(=O)NCc2ccc(C(F)(F)F)cc2)C1 (stereo not drawn) [Example 48, 4-acetyl-1-(2,3-dihydro-benzofuran-5-sulfonyl)-piperazine-2-carboxylic acid 4-trifluoromethyl-benzylamide] | < 6.00 | < 6.00
CC(=O)N1CCN(S(=O)(=O)c2ccc(C(C)C)cc2)C(C(=O)NCc2ccccc2)C1 (stereo not drawn) [Example 49, 4-acetyl-1-(4-isopropyl-benzenesulfonyl)-piperazine-2-carboxylic acid benzylamide] | < 6.00 | < 6.00
COc1ccccc1CNC(=O)C1CN(C(C)=O)CCN1S(=O)(=O)c1ccc(C(C)C)cc1 (stereo not drawn) [Example 50, 4-acetyl-1-(4-isopropyl-benzenesulfonyl)-piperazine-2-carboxylic acid 2-methoxy-benzylamide] | < 6.00 | < 6.00
COc1cccc(CNC(=O)C2CN(C(C)=O)CCN2S(=O)(=O)c2ccc(C(C)C)cc2)c1 (stereo not drawn) [Example 51, 4-acetyl-1-(4-isopropyl-benzenesulfonyl)-piperazine-2-carboxylic acid 3-methoxy-benzylamide] | < 6.00 | < 6.00
COc1ccc(CNC(=O)C2CN(C(C)=O)CCN2S(=O)(=O)c2ccc(C(C)C)cc2)cc1 (stereo not drawn) [Example 52, 4-acetyl-1-(4-isopropyl-benzenesulfonyl)-piperazine-2-carboxylic acid 4-methoxy-benzylamide] | < 6.00 | < 6.00
